Laboratory results from patent US10752591B2, “18-20 member bi-polycyclic compounds” (Haro Pharmaceutical Inc., priority 2014, dated 2020).

Key:
[1] = target: purified recombinant human HDAC-1 (Homo sapiens, UniProt Q13547); assay: HDAC-1 enzymatic inhibition (AMC fluorogenic peptide deacetylation); assay type: biochemical; settings: up to
Method: (§1) The effect of compounds on the enzymatic activity of purified recombinant human HDAC-1, -2, -3, -6, and -8 activity and of purified rat liver HDAC was examined by measuring the deacetylation of synthetic peptides in various preparations of HDACs. HDAC assays were performed using a two-step enzymatic reaction where enzyme activity is correlated to the release of […] (AMC). AMC fluorescence is measured in a fluorescent plate reading using λex380 nm and λen440 nm.
(§2) The reaction was allowed to proceed for 40 min at 37° C., after which developer solution (0.5% trypsin, 10 μM trichostatin A (TSA)) was added to obtain a final concentration of 0.1% trypsin, 2 μM TSA. After 30 minutes at room temperature, the amount of free fluorogenic AMC was measured as described above.

[2] = test system: purified rat liver HDAC; assay: purified rat liver HDAC inhibition; assay type: biochemical; settings: relative to compound 17
Method: as §1, §2

[3] = test system: RAR; assay: RAR-mediated transcription, RARE-tk luciferase reporter in MCF7 cells; assay type: cell-based
Description: (§3) The effect of various compounds of the invention on RAR-mediated transcription in MCF7 breast cancer cells was examined by measuring their effect on the transcription of a luciferase reporter gene under the control of a TK promoter placed downstream of a RAR response element. In addition, the effect of the compounds on the closely related RXR-mediated transcription was examined by measuring their effect on the transcription of a luciferase reporter gene under the control of a TK promoter placed downstream of a RXR response element.
(§4) Typically, 10,000 cells were plated in 96 wells plates in phenol red-free RPMI medium supplemented with 10% charcoal-stripped Fetal Bovine Serum. After 24 hours, cells were transfected with 0.1 μg of luciferase reporter plasmid and 0.01 μg of a reporter plasmid expressing renilla luciferase (RLuc) gene under the control of a SV40 promoter, using Fugene 6 transfection reagent (0.5 μl/well Promega Corporation). Cells were treated in triplicate with compounds or vehicle (DMSO) for 24 hours. Luciferase and renilla luciferase activities were measured using Dual-Glo reagent (Promega Corporation). Luciferase activity was normalized in each well for renilla activity.

[4] = test system: RXR; assay: RXR-mediated transcription, RXRE luciferase reporter in MCF7 cells; assay type: cell-based
Description: as §3, §4

[5] = test system: Lys40 acetylated alpha tubulin; assay: intracellular acetylation of alpha-tubulin in BE-2C cells; assay type: cell-based
Method: The effect of certain compounds on intracellular acetylation of target proteins was tested in high risk neuroblastoma cells, BE-2C and IMR-32 cells.
BE-2C cells were grown to confluence in phenol-red-free RPMI media supplemented with 10% FBS and 2.5 mM Ala-Glu. […] Total and Lys 40 acetylated alpha tubulin were detected using specific antibodies.
Beta actin, total and Lys382 acetylated p53, and Lys40 acetylated alpha, and total tubulin were detected using antibodies (Cell Signaling #8557, #2524 #2525, #12152 and #2144 respectively) using manufacturer recommended conditions.

[6] = test system: C2Cl2 cells; assay: myoblast fusion in long term C2Cl2 cultures (MHC immunocytochemistry); assay type: cell-based; settings: long-term culture, suboptimal RPMI media with 2% horse serum
Method: The effect of compounds on myoblast fusion was examined in C2Cl2 cells maintained in RPMI media supplemented with 2% horse serum. C2Cl2 myoblastic cells where purchased from the American Type Culture Collection (ATCC) and maintained undifferentiated in RPMI media (Corning) supplemented with 2 mM L-Alanine-L-Glutamine (ATCC) and 1 mM pyruvate (Corning). Undifferentiated cells where maintained below 70% confluence. For long term cultures and compound treatment, cells where plated at high density CellBIND Culture Dishes (corning 3294, 3296, 3337) and in RPMI supplemented with 2% Horse Serum (Gibco) and 2 mM L-Alanine-L-Glutamine (ATCC) and 1 mM pyruvate (Corning). Compounds were dissolved in DMSO at 1000 time the final concentration and diluted 1-in-1000 in the media covering the cells. Media and compounds were changed daily. For immunocytochemistry, cells were fixed in 2% PFA in HBSS for 10 minutes and left in HBSS at 4° under humidified atmosphere and processed for immunocytochemistry. For myosin heavy chain detection (MHC), cells were first incubated in 100 ul-1 ml 0.15 M Glycine in DPBS for 10 minutes, rinse with DPBS. 100 ul-1 ml 0.5% Triton-X in DPBS was added for 10 minutes, rinsed with DPBS, and followed by incubation with 100 ul blocking agent (10% goat serum in DPBS) for 30 min at room temperature. MF20 primary antibody in 10% goat serum in DPBS was added at 1/60 dilution for 30 min at room temperature and rinsed three times with 100 ul DPBS. IgG2b goat anti mouse secondary antibody (Jackson Immuno-Research) was added at 1:1000 in 10% goat serum in DPBS for exactly 30 min at room temperature then rinsed 3 times with 100 ul DPBS. A final rinse in H2O was performed and cells were covered with two drops of Elvanol and cover gently with cover slip and allowed to dry in the dark for 24-48 hours.

[7] = test system: C2Cl2 cells; assay: Q-RT PCR of myofiber-degradation associated genes in long term C2Cl2 cultures; assay type: cell-based; settings: day 10, normalized for RPLP0
Method: Quantitative RT-PCR was performed on RNA prepared from cell treated as in Example 9. At day 10 of the experiment, cells were rinsed in HBSS (without calcium or magnesium) and RNA was prepared using FastLane Cell cDNA Kit (Qiagen). Quantitative PCR was performed using Eppendorf and SYBR amplification mix (Sigma-Aldrich) using the gene specific primer combination given in Table 3. Data were normalized for ribosomal housekeeping gene RPLP0

[8] = mouse pharmacokinetics; assay type: in vivo; settings: mice
Method: Mouse pharmacokinetics studies were conducted in female athymic nude or male C57/B6 mice (n=3). Due to its very poor aqueous solubility, compound 17 was formulated in 66% PEG-400/33% H2O-1% Tween-80. In contrast compound 13 was formulated in 66% PEG-400/33% H2O. Compounds were administered PO (30 mg/kg) or IV (5 mg/kg), and plasma concentrations were measured by UV/HPLC.

[9] = aqueous solubility; assay type: physicochemical
[10] = PO (30 mg/kg) or IV (5 mg/kg), route per parameter not stated

purified recombinant human HDAC-1, sequence (Q13547 whole entry): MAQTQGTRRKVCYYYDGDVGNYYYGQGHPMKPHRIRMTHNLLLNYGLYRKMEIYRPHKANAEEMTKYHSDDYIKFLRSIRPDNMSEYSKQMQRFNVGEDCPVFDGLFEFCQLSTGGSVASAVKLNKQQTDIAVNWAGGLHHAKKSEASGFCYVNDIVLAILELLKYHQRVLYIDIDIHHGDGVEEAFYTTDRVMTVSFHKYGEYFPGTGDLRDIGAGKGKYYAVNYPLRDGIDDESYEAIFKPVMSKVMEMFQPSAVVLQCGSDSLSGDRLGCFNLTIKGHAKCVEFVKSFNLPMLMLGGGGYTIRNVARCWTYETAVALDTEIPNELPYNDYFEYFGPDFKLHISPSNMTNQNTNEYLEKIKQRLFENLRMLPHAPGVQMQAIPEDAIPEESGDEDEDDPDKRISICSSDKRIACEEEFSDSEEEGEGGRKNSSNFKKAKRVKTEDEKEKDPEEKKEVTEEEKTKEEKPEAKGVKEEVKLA

## CC1(C)CCC(C)(C)c2cc(-c3cc4cc(C(=O)NO)ccc4[nH]3)ccc21 [Compound 13]
[1]
  maximal inhibition of HDAC-1 activity: ~50%
[2]
  times more potent than compound 17 in inhibition of purified rat hepatic HDAC: seventy
[3]
  RARE-dependent luciferase expression: activated
[3]; relative to compound 17
  times more potent than compound 17 in activating RARE-tk_luc reporter: five to ten
[4]
  transcriptional activation of RXR / RXRE-promoter: none
[5]
  alpha tubulin acetylation by LC-MS analysis: lack of increased alpha tubulin acetylation
[5]; 5 μM, 16 hours
  Lysin (K) 40 alpha-Tubulin acetylation: no significant acetylation
[6]
  fusion of single cells into multinucleated C2Cl2 myotubes: enhances the fusion
[7]
  expression of Atrogin: downregulates
  expression of myogenin: downregulates
[8]
  T max compared with compound 17: markedly reduced
  oral bioavailability, AUC, Cmax compared with compound 17: markedly higher
[8]; [10]
  AUC0-∞: 42.00 µM·h
  CLp: 0.0144 L/h/kg
  Cmax: 5.54 µM
  MRT: 6.9 h
  Tmax: 1.4 h
  Vd,ss: 8 L/kg
[9]
  aqueous solubility: improved
